This is an account of results in patent publication US20130252930A1 (BIOMARIN PHARMACEUTICAL INC., priority 2010, published 2013).

The subject of assay [1] is rat Cyp11B enzyme (rat adrenal mitochondria). Kind of assay: CYP11B enzymatic assay (% inhibition at 100 nM) (Biological Example 9). Type of assay: biochemical. As to conditions: for Biological Example No. 9: CYP11B percent inhibition at 100 nM: 100 nM compound, cortisol by ELISA. The procedure, abridged: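 Sprague Dawley rat adrenal mitochondria were incubated with compound at 100 nM, 0.5 mM NADPH and 0.1 μM 11-deoxycortisol (pH 7.4 Tris buffer) for 60 min at 37 °C. Cortisol was measured by ELISA and corrected by subtracting the no-NADPH background. % inhibition is relative to the no-compound reaction.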

Assay [2] addresses T1, CYP17 (H295R cells) (Homo sapiens, UniProt P05093).
T1 construct: endogenous in cells; host or cells: H295R cells
T1 sequence (P05093 1-508): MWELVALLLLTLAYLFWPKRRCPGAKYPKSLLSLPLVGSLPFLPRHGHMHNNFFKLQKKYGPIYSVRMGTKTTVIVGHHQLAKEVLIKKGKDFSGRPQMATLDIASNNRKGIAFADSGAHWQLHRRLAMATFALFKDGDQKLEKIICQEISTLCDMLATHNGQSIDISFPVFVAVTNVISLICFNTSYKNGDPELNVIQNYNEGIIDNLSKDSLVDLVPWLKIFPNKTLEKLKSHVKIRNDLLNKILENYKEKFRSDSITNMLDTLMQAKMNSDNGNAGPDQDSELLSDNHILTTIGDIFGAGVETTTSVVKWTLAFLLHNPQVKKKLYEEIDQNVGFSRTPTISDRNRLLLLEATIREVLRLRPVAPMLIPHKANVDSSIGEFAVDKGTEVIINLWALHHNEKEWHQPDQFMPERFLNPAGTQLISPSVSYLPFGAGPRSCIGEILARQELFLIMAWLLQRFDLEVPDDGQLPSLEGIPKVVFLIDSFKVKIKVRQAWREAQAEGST
Kind of assay: CYP17 cellular assay (IC50), testosterone in H295R cells (Biological Example 7). It is filed as cell-based. Conditions: H295R cells. The gist of the method:
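Testosterone in the medium was quantified by ELISA after 24 h at 37 °C with test compound (final 100, 10, 1, 0.1 nM; serum-free DMEM/F-12, ITS+, 0.1% methanol). The H295R cells had been seeded and grown 24 h beforehand; vehicle wells served as control.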

Where [3] appears, read: testosterone by ELISA, 24 hours, read-out: Biological Example No. 7: CYP17 cellular assay IC50.

Like-named read-outs stand apart in the source and are kept apart here.

For orientation: IC50 means the concentration that gives 50% inhibition.

With `C[C@]12CC[C@H]3[C@@H](CC=C4C[C@@H](O)CC[C@@]43C)C1=CC=C2c1cccnc1` [Compound 79, (3S,10R,13S)-10,13-dimethyl-17-(pyridin-3-yl)-2,3,4,7,8,9,10,11,12,13-decahydro-1H-cyclopenta[a]phenanthren-3-ol], the “Biological Example No. 9: CYP11B percent inhibition at 100 nM” value in assay [1] is reported as “T (T means the compound had a percent inhibition of less than 32% when tested at 100 nM)”. The IC50 in assay [2] (setting [3]) was less than 15 nM.
As for `C[C@]12CC(O)C[C@@H]1CC[C@@H]1[C@@H]2CC[C@]2(C)C(n3ccnc3)=CC[C@@H]12` (stereo partly drawn) [Compound 109, (3aS,5aS)-6-(1H-imidazol-1-yl)-3a,5a-dimethyl-1,2,3,3a,3b,4,5,5a,8,8a,8b,9,10,10a-tetradecahydrodicyclopenta[a,f]naphthalen-2-ol], in assay [1], the “Biological Example No. 9: CYP11B percent inhibition at 100 nM” value is recorded as “U (U means the compound had a percent inhibition of greater than or equal to 32%)”. Besides, in assay [2] (setting [3]), the half-maximal inhibitory concentration (IC50) is less than 15 nM.
On to `CC(=O)NC1CC[C@@]2(C)C(=CCC3C2CC[C@]2(C)C(n4ccnc4)=CCC32)C1` (stereo partly drawn) [Compound 237, N-((10R,13S)-17-(1H-imidazol-1-yl)-10,13-dimethyl-2,3,4,7,8,9,10,11,12,13,14,15-dodecahydro-1H-cyclopenta[a]phenanthren-3-yl)acetamide], for which, in assay [1] (compound at 100 nM), the “CYP11B enzymatic assay % inhibition at 100 nM (Biological Example No. 9)” value was “U (U means the compound had a percent inhibition of greater than or equal to 32%)”. For the same molecule, the concentration for half-maximal inhibition (IC50) in assay [2] (testosterone, read-out: CYP17 cellular assay IC50 (Biological Example No. 7)) is less than 15 nM.
